# From US20260258425A1, “MALT1 TUMOR INHIBITOR, PHARMACEUTICAL COMPOSITION CONTAINING THE SAME, AND APPLICATIONS THEREOF” (XZYP (BEIJING) BIOTECH CO., LTD, priority 2023, published 2026)
# Entries after “also recorded” stand apart in the source; their conditions may differ.
# Assays:
# [1] = system: MALT1; experiment: Western blot of MALT1 expression in E0771 cells after ASO transfection with Lipofectamine 3000; type: cell-based, mouse; details: ASO final concentration 50 nM, 5 μL Lipofectamine 3000, 48 hours after transfection, listed as D
# From the text: S1. Considering the specificity between the antisense nucleic acid and the target nucleic acid and the hairpin-like structure that may be formed by the base complementarity within the nucleotide sequence of the antisense nucleic acid, the nucleotide sequence of the antisense nucleic acid needs to target the amino acid residues at positions 81 and/or 82 of the death domain (DD) of MALT1; S2. Considering the stability of hybridization and the membrane permeability of the antisense oligonucleotide, select the length of the antisense oligonucleotide, which ranges from 15 to 40 bases; S3. Considering the affinity of the antisense oligonucleotide for the target sequence, since the affinity of GC base pairs is greater than that between AU, increasing the ratio of GC base pairs to AU base pairs in the antisense oligonucleotide can appropriately reduce the length of the antisense oligonucleotide; S4. Set a control, which can be missense or reverse; S5. Use the designed antisense oligonucleotides to inhibit the expression of the same target sequence MALT-1 mRNA, and screen the antisense oligonucleotide with the best inhibitory effect. The specific steps for screening the antisense oligonucleotide with the best inhibitory effect are as follows: • a. […] 2×10^5 E0771 cells into each well of a 12-well plate and incubate overnight; • b. On the day after operation a, transfect the corresponding ASO drug with 5 μL of Lipofectamine™ 3000 until its final concentration is 50 nM; • c. 6 hours after operation b, replace the serum-free medium with medium containing 10% serum; • d. 24 hours after operation c, replace the serum-free medium again; • e. 48 hours after operation d, harvest the obtained protein and perform Western blot experiment. The Western blot results of antisense oligonucleotides targeting E0771 cells after transfection with Lipofectamine™ 3000 are shown in FIG. 5: in this figure, 48 hours after transfection with Lipofectamine™ 3000, 5 μL of Lipofectamine™ 3000 was added to each well of the 12-well plate.
# [2] = system: breast cancer cells (E0771); experiment: Verification of ASO prodrug in breast cancer cells E0771 (FIG. 18); type: cell-based, mouse
# [3] = system: E0771 cells; experiment: E0771 orthotopic breast cancer model, intratumoral ASO, tumor volume; type: in vivo, mouse; details: ASO 5 nmol intratumoral twice a week, mean, n=12
# From the text: (§1) Based on the intratumoral experimental data of various mouse breast cancer models and melanoma models (administration started 7 days later, once every 3 days), this example studies the effect comparison between the ASO prodrug (ASO24, whose sequence is shown in SEQ ID No. 2) and PD-1/PD-L1, as well as the effect of their combination.
# (§2) 1×10^5 E0771 cells were orthotopically injected into the fat pad of wild-type mice. Starting from day 7, PD-1 antibody (BioXCell #BE0033, clone J43, the same below) monotherapy, ASO monotherapy, or combined PD-1 antibody and ASO therapy was initiated. For anti-PD-1 antibody monotherapy, intraperitoneal injection was performed once a week at a dose of 3 mg/kg starting 7 days after tumor transplantation, and the control group was injected with DPBS. For MALT1 ASO monotherapy, in vivo-jetPEI®, in vivo DNA transfection kit was used according to the instructions. Intratumoral injection was performed twice a week at a dose of 5 nmol starting 7 days after tumor transplantation, and the control group was injected with solvent or nontarget ASO. Combined therapy will receive the two specified monotherapies. Tumor measurement was started after administration, once every three days. n=12. Data are expressed as mean. Statistical analysis was performed using Two way ANOVA. ** represents p <0.01.
# [4] = system: PyMT-A cells; experiment: PyMT-A orthotopic breast cancer model, intratumoral ASO, tumor volume; type: in vivo, mouse; details: mean, n=10
# From the text: as §1, §2
# 1×10^5 PyMT-A cells were orthotopically injected into the fat pad of wild-type mice. Starting from day 7, PD-1 antibody monotherapy, ASO monotherapy, or combined PD-1 antibody and ASO therapy was initiated. n=10. Data are expressed as mean. Statistical analysis was performed using Two way ANOVA. n.s. represents no significant difference. ** represents p <0.01.
# [5] = system: 4T1 cells; experiment: 4T1 orthotopic breast cancer model, intratumoral ASO, tumor volume; type: in vivo, mouse; details: mean, n=10
# From the text: as §1, §2
# 2×10^5 4T1 cells were orthotopically injected into the fat pad of wild-type mice. Starting from day 7, PD-1 antibody monotherapy, ASO monotherapy, or combined PD-1 antibody and ASO therapy was initiated. n=10. Data are expressed as mean. Statistical analysis was performed using Two way ANOVA. n.s. represents no significant difference. ** represents p <0.01.
# [6] = system: E0771 cells; experiment: E0771 breast cancer model, systemic ASO24 (tail vein LNP-ASO), tumor volume; type: in vivo, mouse
# Description: as §2
# (§3) Study on the Effect Comparison between ASO Prodrug and PD-1/PD-L1 and Their Combined Use Based on Systemic Administration Experimental Data of Various Mouse Breast Cancer Models and Melanoma Models (Administration Started 7 Days Later, Once Every 3 Days).
# (§4) The experimental process is similar to the intratumoral administration of ASO24 in E0771 cells, with the difference that ASO24 is administered via systemic delivery by tail vein injection of LNP-ASO in mice.
# [7] = system: 4T1 cells; experiment: 4T1 breast cancer model, systemic ASO24 (tail vein LNP-ASO), tumor volume; type: in vivo, mouse
# Description: as §3, §4
# [8] = Day 7 (start of administration), ASO24 systemic by tail vein LNP-ASO
# [9] = Day 9, ASO24 systemic by tail vein LNP-ASO, administration from day 7
# [10] = Day 11, ASO24 systemic by tail vein LNP-ASO, administration from day 7
# [11] = Day 13, ASO24 systemic by tail vein LNP-ASO, administration from day 7
# [12] = Day 15, ASO24 systemic by tail vein LNP-ASO, administration from day 7
# [13] = Day 17, ASO24 systemic by tail vein LNP-ASO, administration from day 7
# [14] = Day 19, ASO24 systemic by tail vein LNP-ASO, administration from day 7
sequence,measurement,setting,value
"GAAGTTCATGAGCCTTGGCCC (antisense GAAGUUCAUGAGCCUUGGCCC; called an ASO prodrug, chemistry not given here) [ASO24]",inhibition of MALT1 expression (Western blot band),[1],obvious inhibitory results; also recorded: obvious inhibitory effects
same,inhibition of further development of cancer cells,[2],significantly inhibit the further development of cancer cells
same,Tumor volume,"[3]; Day 0, E0771 orthotopic fat pad, wild-type mice, from day 7 anti-PD-1 3 mg/kg i.p. once a week",0 mm^3
same,Tumor volume,"[3]; Day 7 (start of treatment), E0771 orthotopic, anti-PD-1 3 mg/kg i.p. once a week",49 mm^3
same,Tumor volume,"[3]; Day 10, E0771 orthotopic, from day 7 anti-PD-1 3 mg/kg i.p. once a week",36 mm^3
same,Tumor volume,"[3]; Day 13, E0771 orthotopic, from day 7 anti-PD-1 3 mg/kg i.p. once a week",92 mm^3
same,Tumor volume,"[3]; Day 16, E0771 orthotopic, from day 7 anti-PD-1 3 mg/kg i.p. once a week",140 mm^3
same,Tumor volume,"[3]; Day 19, E0771 orthotopic, from day 7 anti-PD-1 3 mg/kg i.p. once a week",306 mm^3
same,Tumor volume,"[4]; Day 0, PyMT-A orthotopic fat pad, wild-type mice, treatment from day 7, ASO intratumoral",0 mm^3
same,Tumor volume,"[4]; Day 7 (start of treatment), PyMT-A orthotopic, ASO intratumoral",13 mm^3
same,Tumor volume,"[4]; Day 10, PyMT-A orthotopic, treatment from day 7, ASO intratumoral",41 mm^3
same,Tumor volume,"[4]; Day 13, PyMT-A orthotopic, treatment from day 7, ASO intratumoral",142 mm^3
same,Tumor volume,"[4]; Day 16, PyMT-A orthotopic, treatment from day 7, ASO intratumoral",245 mm^3
same,Tumor volume,"[4]; Day 19, PyMT-A orthotopic, treatment from day 7, ASO intratumoral",578 mm^3
same,Tumor volume,"[5]; Day 0, 4T1 orthotopic fat pad, wild-type mice, treatment from day 7, ASO intratumoral",0 mm^3
same,Tumor volume,"[5]; Day 7 (start of treatment), 4T1 orthotopic, ASO intratumoral",66 mm^3
same,Tumor volume,"[5]; Day 10, 4T1 orthotopic, treatment from day 7, ASO intratumoral",71 mm^3
same,Tumor volume,"[5]; Day 13, 4T1 orthotopic, treatment from day 7, ASO intratumoral",205 mm^3
same,Tumor volume,"[5]; Day 16, 4T1 orthotopic, treatment from day 7, ASO intratumoral",377 mm^3
same,Tumor volume,"[5]; Day 19, 4T1 orthotopic, treatment from day 7, ASO intratumoral",876 mm^3
same,Tumor volume,"[6]; Day 0, ASO24 systemic by tail vein injection of LNP-ASO, administration from day 7",0 mm^3
same,Tumor volume,[6]; [8],29 mm^3
same,Tumor volume,[6]; [9],51 mm^3
same,Tumor volume,[6]; [10],57 mm^3
same,Tumor volume,[6]; [11],86 mm^3
same,Tumor volume,[6]; [12],195 mm^3
same,Tumor volume,[6]; [13],225 mm^3
same,Tumor volume,[6]; [14],313 mm^3
same,Tumor volume,"[7]; Day 0, ASO24 systemic by tail vein LNP-ASO, administration from day 7",0 mm^3
same,Tumor volume,[7]; [8],44 mm^3
same,Tumor volume,[7]; [9],94 mm^3
same,Tumor volume,[7]; [10],103 mm^3
same,Tumor volume,[7]; [11],136 mm^3
same,Tumor volume,[7]; [12],244 mm^3
same,Tumor volume,[7]; [13],333 mm^3
same,Tumor volume,[7]; [14],510 mm^3
